Assay results published in patent US8394848B2, “Compounds that modulate intracellular calcium” (Calcimedica, Inc., priority 2008, dated 2013).

Legend:
[1] = target: T1, recombinant human STIM1 and Orai1 (HEK-293 stable cells; JR251) (Homo sapiens, UniProt Q96D31); test: Fluorescence-based assay of store-operated calcium entry in Orai1/STIM1 stable cells; assay type: cell-based; settings: 50% inhibition of Peak-Basal signal
T1 construct: c-myc (C); expressed in transfected cells
Protocol: A. Fluorescence-Based Assay of Store-Operated Calcium Entry in Orai1/STIM1 Stable Cells.
Cells stably expressing recombinant human STIM1 and Orai1 were generated by transfecting a human Orai1 expression plasmid (pcDNA3.1-Orai1-cmyc) into HEK-293 cells stably overexpressing human STIM1 (Roos et al. 2005 JCB 169(3): 435-445). Colonies of cells stably expressing both STIM1 and Orai1 proteins were selected and then subcloned by limiting dilution. Cells were cultured at 37° C./6% CO2 in complete medium with 10% FBS and appropriate selection markers.
The day prior to performing the assay Orai1/STIM1 stable cells were plated in 50 μL of complete medium at 90-95% confluence in a 384 well plate. Cells were grown at 37° C./6% CO2 overnight. On the day of the assay, 1.5 μM fluo-4-AM (Invitrogen) in complete medium was added to the cells, which were then incubated for 1 hour at RT. Cells were washed once in Ca^2+-free HBSS (Hank's buffered saline solution) and 35 μl of Ca^2+-free HBSS was added to each well. Test compounds were added to wells in a 10 μL Ca^2+-free HBSS solution, prepared at 4.5× the desired final concentration, and incubated for 30 minutes at RT. The initial baseline fluorescence signal was then measured with a FLIPR^384 (Molecular Devices) plate reader. Calcium entry was initiated by adding 5 μl of 10×CaCl2 (10 mM) in HBSS, and changes in cellular fluorescence were measured with the FLIPR^384 plate reader. In each well, the magnitude of the fluorescence signal as a result of calcium entry into the cell was determined by calculating the difference between the peak fluorescence signal measured after calcium addition and the initial baseline fluorescence signal (designated Peak-Basal). IC50 values were typically calculated as the concentration that inhibited 50% of the Peak-Basal signal (Table A).

[2] = tested on: RBL-2H3 cells; test: Fluorescence-based assay of store-operated calcium entry in RBL-2H3 cells; assay type: cell-based; settings: Rattus norvegicus, 50% inhibition of Upslope, thapsigargin
Protocol: B. Fluorescence-Based Assay of Store-Operated Calcium Entry in RBL-2H3Cells.
RBL-2H3 cells were obtained from ATCC and maintained in complete medium with 10% FBS at 37° C./6% CO2.
The day prior to performing the assay, RBL-2H3 cells are plated in 50 μL of complete medium in a 384 well plate. Cells are grown at 37° C./6% CO2 overnight and grow to 50-60% confluence by the next day. On the assay day, 1.5 μM Fluo-4-AM dye (Invitrogen) in complete medium is added and incubated for 1 hour at RT. Cells are washed twice in Ca^2+-free HBSS buffer and 35 μL Ca^2+-free HBSS buffer is added to each well. 10 μL of a test compound prepared in a Ca^2+-free HBSS solution at 4.5× of the desired concentration is added to a well and incubated for 5 minutes at RT. 10 μL of thapsigargin prepared in a Ca^2+-free HBSS solution at 5.5× of the desired concentration (5.5 uM) is added to each well and incubated for an additional 25 minutes. The initial baseline fluorescence signal is measured with a FLIPR^384 (Molecular Devices) plate reader. 5 μL of 12× calcium in HBSS (12 mM) is added and changes in cellular fluorescence are measured with the FLIPR^384 plate reader. In each well, the change in the fluorescent signal as a function of time due to calcium entry into the cell is determined by calculating the difference between the fluorescent signal measured 7 seconds after calcium addition and the initial baseline fluorescence signal at time zero (t=0). This parameter is designated Upslope. The IC50 value is calculated as the concentration at which 50% of the Upslope is inhibited.

[3] = target: STIM1 and Orai1 in HEK293 cells (Homo sapiens, UniProt Q96D31); settings: STIM1 and Orai1 co-expression; cited from earlier work
[4] = tested on: Jurkat cells; settings: cited from earlier work
[5] = tested on: JR251 or RBL cells; test: Store-operated calcium entry, either JR251 or RBL cells, or both; assay type: cell-based
Summary of the method: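 Orai1/STIM1 stable cells: fluo-4-AM loaded, compound 30 min at RT in Ca2+-free HBSS, then CaCl2 added; IC50 from Peak-Basal FLIPR fluorescence. RBL-2H3 cells: compound 5 min, then thapsigargin (5.5× stock, 5.5 uM) 25 min, then calcium added; IC50 from Upslope (signal 7 s after calcium minus baseline).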

T1 sequence (Q96D31 whole entry): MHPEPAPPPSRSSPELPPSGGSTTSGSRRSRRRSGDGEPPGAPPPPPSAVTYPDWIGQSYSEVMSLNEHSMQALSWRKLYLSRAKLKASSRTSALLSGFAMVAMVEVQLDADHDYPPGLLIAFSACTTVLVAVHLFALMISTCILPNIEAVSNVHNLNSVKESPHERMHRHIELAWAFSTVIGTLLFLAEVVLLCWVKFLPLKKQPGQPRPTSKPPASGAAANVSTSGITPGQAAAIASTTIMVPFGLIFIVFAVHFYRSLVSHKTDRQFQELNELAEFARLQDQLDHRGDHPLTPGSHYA
Sequence of STIM1 and Orai1 in HEK293 cells (Q96D31 whole entry): as above

Structure (SMILES) | IC50 [1] [µM] | IC50 [2] [µM] | also measured
O=C(Nc1scc(-c2ccc(Cl)cc2)c1C(=O)O)/C(F)=C/c1ccccc1Cl [U] | 1 to 10 |  | 
O=C(Nc1scc(-c2ccc(Cl)cc2)c1C(=O)O)c1nc2ccccc2s1 [G] | ≤ 0.5 | ≤ 0.5 | 
COc1c(F)c(F)cc(C(=O)Nc2scc(-c3ccc(Br)cc3)c2C(=O)O)c1F [L] | ≤ 0.5 |  | 
O=C(Nc1scc(-c2ccc(Cl)cc2)c1C(=O)O)c1ccc(C(F)(F)F)nc1 [M] | 1 to 10 |  | 
O=C(O)c1c(-c2ccc(Cl)cc2)csc1NC(=O)C1CCc2ccccc2C1 (stereo not shown) [K] | ≤ 0.5 | ≤ 0.5 | 
NCCOB(c1ccccc1)c1ccccc1 [2-aminoethoxydiphenylborate] |  |  | block of store-dependent Ca2+ entry [3]: completely blocked
O=C(Nc1scc(-c2ccc(Cl)cc2)c1C(=O)O)c1cc2sccc2s1 [J] | ≤ 0.5 | ≤ 0.5 | 
COc1cc(C)c(-c2csc(NC(=O)c3cc4ccccc4o3)c2C(=O)O)c(C)c1 [N] | ≤ 0.5 | ≤ 0.5 | 
O=C(Nc1scc(-c2ccc(Cl)cc2)c1C(=O)O)c1cc2nccnc2s1 [X] | ≤ 0.5 | ≤ 0.5 | 
Cc1nnsc1C(=O)Nc1ccc(-n2nc(C(F)(F)F)cc2C(F)(F)F)cc1 [BTP-2] |  |  | inhibition of SOCE [4]: inhibits; inhibition of proliferation [4]: inhibits
O=C(Nc1scc(-c2ccc(Br)cc2)c1C(=O)O)c1ccc(C(F)(F)F)nc1 [AA] | 1 to 10 |  | 
O=C(Nc1scc(-c2ccc(Br)cc2)c1C(=O)O)c1nc2cccc(F)c2o1 [B] | ≤ 0.5 | ≤ 0.5 | 
CC(Cc1ccccc1)C(=O)Nc1scc(-c2ccc(Br)cc2)c1C(=O)O (stereo not shown) [E] | ≤ 0.5 | ≤ 0.5 | 
O=C(CCc1cccs1)Nc1scc(-c2ccc(Cl)cc2)c1C(=O)O [R] | ≤ 0.5 | ≤ 0.5 | 
O=C(Nc1scc(-c2ccc(Cl)cc2)c1C(=O)O)c1cc(-c2ccccc2)on1 [T] | 0.5 to 1 |  | 
O=C(Nc1scc(-c2ccc(Cl)cc2)c1C(=O)O)c1cnc2ccccc2n1 [P] | ≤ 0.5 | ≤ 0.5 | 
O=C(Nc1scc(-c2ccc(Cl)cc2)c1C(=O)O)c1nc(C2CC2)cs1 [W] | ≤ 0.5 | ≤ 0.5 | 
O=C(Nc1scc(-c2ccc(Cl)c(F)c2)c1C(=O)O)c1nc2ccccc2o1 [2-(benzo[d]oxazole-2-carboxamido)-4-(4-chloro-3-fluorophenyl)thiophene-3-carboxylic acid] |  |  | IC50 [5]: < 10 µM
O=C(CCc1ccccc1Cl)Nc1scc(-c2ccc(Br)cc2)c1C(=O)O [4-(4-bromophenyl)-2-(3-(2-chlorophenyl)propanamido)thiophene-3-carboxylic acid] |  |  | IC50 [5]: < 10 µM
O=C(CCc1ccccc1)Nc1scc(-c2cc(F)c(Cl)cc2Cl)c1C(=O)O [4-(2,4-dichloro-5-fluorophenyl)-2-(3-phenylpropanamido)thiophene-3-carboxylic acid] |  |  | IC50 [5]: < 10 µM
O=C(Nc1scc(-c2ccc(Cl)cc2)c1C(=O)O)c1ncc(-c2ccccc2)cn1 [4-(4-chlorophenyl)-2-(5-phenylpyrimidine-2-carboxamido)thiophene-3-carboxylic acid] |  |  | IC50 [5]: < 10 µM
O=C(Nc1scc(-c2ccc(Cl)cc2)c1C(=O)O)c1ccncc1 [4-(4-chlorophenyl)-2-(isonicotinamido)thiophene-3-carboxylic acid] |  |  | IC50 [5]: < 10 µM
CC(Cc1ccccc1)C(=O)Nc1scc(-c2ccc(Cl)cc2)c1C(=O)O (stereo not shown) [4-(4-chlorophenyl)-2-(2-methyl-3-phenylpropanamido)thiophene-3-carboxylic acid] |  |  | IC50 [5]: < 10 µM
O=C(Nc1scc(-c2ccc(Cl)cc2)c1C(=O)O)c1ccno1 [4-(4-chlorophenyl)-2-(isoxazole-5-carboxamido)thiophene-3-carboxylic acid] |  |  | IC50 [5]: < 10 µM
O=C(Nc1scc(OC(=O)c2cc3ccccc3o2)c1C(=O)O)c1cc2ccccc2o1 [4-(benzofuran-2-carbonyloxy)-2-(benzofuran-2-carboxamido)thiophene-3-carboxylic acid] |  |  | IC50 [5]: < 10 µM

Second part, led by results:

IC50 [1] [µM] | IC50 [2] [µM] | Structure (SMILES) | also measured
1 to 10 |  | O=C(Nc1scc(-c2ccc(Cl)cc2)c1C(=O)O)c1cc2ccccc2nn1 [Y] | 
≤ 0.5 | ≤ 0.5 | Cc1ccc(-c2csc(NC(=O)c3cnc4ccccc4n3)c2C(=O)O)c(F)c1F [F] | 
≤ 0.5 |  | O=C(Nc1scc(-c2ccc(Cl)cc2)c1C(=O)O)c1ccc2scnc2c1 [Q] | 
≤ 0.5 | ≤ 0.5 | O=C(Nc1scc(-c2ccc(Br)cc2)c1C(=O)O)c1nc2c(F)cccc2o1 [C] | 
≤ 0.5 | ≤ 0.5 | COc1cc(C)c(-c2csc(NC(=O)c3cc4ccccc4o3)c2C(=O)O)cc1C [H] | 
1 to 10 |  | O=C(Nc1scc(-c2ccc(Br)cc2)c1C(=O)O)c1cn2ccccc2n1 [Z] | 
1 to 10 |  | O=C(Nc1scc(-c2ccc(Br)cc2)c1C(=O)O)OCc1ccccc1 [S] | 
≤ 0.5 | ≤ 0.5 | O=C(Nc1scc(-c2ccc(Cl)cc2)c1C(=O)O)c1ccc([N+](=O)[O-])o1 [V] | 
≤ 0.5 | ≤ 0.5 | O=C(O)c1c(-c2ccc(Cl)cc2)csc1NC(=O)C(Cl)Cc1ccccc1 (stereo not shown) [D] | 
1 to 10 | 1 to 10 | Cc1nnsc1C(=O)Nc1scc(-c2ccc(Br)cc2)c1C(=O)O [A] | 
≤ 0.5 | ≤ 0.5 | O=C(Nc1scc(-c2ccc(Cl)cc2)c1C(=O)O)c1cc2ccccn2n1 [O] | 
1 to 10 | ≤ 0.5 | O=C(Nc1scc(-c2cc3cccc(O)c3o2)c1C(=O)O)c1cc2cccc(O)c2o1 [AB] | 
≤ 0.5 | ≤ 0.5 | O=C(Nc1scc(-c2ccc(Br)cc2)c1C(=O)O)c1cc2ccccn2n1 [Compound I] | 
